Experimental data reported in US20100105746A1, “METHOD FOR TREATING METABOLIC DISEASES” (priority 2008, published 2010).
Where “and” joins values, the source holds several entries; their conditions need not be identical. Equal values may be shown once.

Tests used:
[1] = Terminal fasting serum glucose and lipids in rats with diet-induced obesity (Example 6); format: in vivo, rat; conditions: DIO rats, vs vehicle control
Method: As part of the study described in Example 4, a terminal blood sample (0.5 ml whole blood in EDTA) was collected on day 24, after a 12-18 hour fast. Whole blood was processed to serum, and analyzed for glucose, total cholesterol, HDL cholesterol, free fatty acids and total triglycerides.

[2] = Oral glucose tolerance test (OGTT) in rats with diet-induced obesity (Example 5); format: in vivo, rat; conditions: for Glucose concentration excursion (baseline to maximum) / Glucose concentration maximum: OGTT day 21, DIO rats; for Time to maximum (glucose concentration): OGTT day 21, dextrose 2 g/kg
Method: As part of the study described in Example 4, an oral glucose tolerance test (OGTT) was performed on day 21 of the dosing period, after a 2-4 hour fast. Dextrose (2 g/kg) was administered by oral gavage. Blood for glucose analysis was collected at 0, 15, 30, 60, 120 and 180 minutes after dextrose administration. At each time point, 0.25 ml whole blood was collected in EDTA, processed to plasma, and analyzed for blood glucose with a low-volume glucose kit.

[3] = Body weight, food consumption and liver weight in diet-induced obese (DIO) rat model (Example 4); format: in vivo
Method: Male Sprague-Dawley rats were acclimated for 7 weeks on a high-fat diet before commencement of dose administration, and maintained on the same diet throughout the subsequent dosing period of 23 days. The high-fat diet (D12492 commercially available from Research Diets, Inc., New Brunswick, N.J.) was one in which at least 60% of calories are derived from fat.
Dose levels of gemfibrozil (50 mg/kg) and sibutramine (10 mg/kg) were selected based on published reports. All treatments were administered once daily by oral gavage in 10 ml vehicle. A vehicle-only control was also administered. Each treatment group consisted of 10 animals.
Body weight of each animal was measured weekly during the 7-week acclimation period and five times weekly during the 23-day dosing period. Food consumption was recorded twice weekly during the 7-week acclimation period and five times weekly during the 23-day dosing period.
Animals were sacrificed and liver weights measured at conclusion of the study.

[4] = Plasma lipids, lipoproteins and liver weight in normal rats versus fibrates (Example 8); format: in vivo, rat; conditions: once daily p.o. 7 days, approximation
Source text: The study design was based on the protocols used in Examples 1-3. Male Sprague-Dawley rats were provided normal chow ad libitum, both before and during the study period. […] Six rats were assigned to each treatment group (8 to the vehicle control). The study terminated on the day following administration of the seventh dose (day 8), with terminal blood collected for plasma lipid and lipoprotein analyses including LC-MS-based determination of lipid profiles, total and free cholesterol analyses, and lipoprotein cholesterol determinations (VLDL, LDL and HDL).
In order to elucidate the impact of romazarit on plasma lipoproteins, an ultraviolet (UV) size exclusion chromatography (SEC) system was used to separate plasma into broad lipoprotein-containing fractions that were based on relative retention times of human VLDL (very low density lipoprotein), LDL (low density lipoprotein), and HDL (high density lipoprotein) standards. These fractions were collected for cholesterol assays and the UV chromatograms were integrated to provide relative quantitation of the three lipoprotein types. It is important to note that since the UV absorbance measurement is not specific for lipoproteins and may also derive from other plasma constituents that co-elute with a particular lipoprotein, the relative quantitation data reported here is an approximation. The HDL fraction in particular may have included such co-eluting species, as evidenced by the relatively high integrated area values for this fraction.

[5] = DIO rats, 10 mg/kg once daily p.o.

In the case of `CC(C)CC(N(C)C)C1(c2ccc(Cl)cc2)CCC1` (stereo not shown) [sibutramine], the “terminal (total) cholesterol levels” value ([1]; day 24, 10 mg/kg once daily) is reported as “no effect”, the “terminal HDL levels” value ([1]; day 24, 10 mg/kg once daily) is reported as “no significant effect” and the “terminal fasting levels of triglycerides” value ([1]; day 24, 10 mg/kg once daily) is reported as “significant reduction”. The “terminal fasting serum glucose” value ([1]; day 24, 10 mg/kg once daily) was “significant decrease”, the “terminal levels of free fatty acids” value ([1]; day 24, 10 mg/kg once daily) was “no effect” and the Glucose concentration baseline ([2]; OGTT day 21, 0 minutes, DIO rats, 10 mg/kg) was 126.9 mg/dL. For the same molecule, the “Glucose concentration excursion (baseline to maximum)” value ([2]; 10 mg/kg) was 74.4 mg/dL, the Glucose concentration maximum ([2]; 10 mg/kg) was 201.3 mg/dL and the “Time to maximum (glucose concentration)” value ([2]; DIO rats, 10 mg/kg) was 30 min. For the same molecule, the “day by which food consumption returned to levels comparable to the vehicle control” value [3, 5] was no more than 8 days, the “time of minimum food consumption” value [3, 5] was no more than 2 days and the body weight ([3]; DIO rats, 10 mg/kg once daily p.o., 23 days) was “significant weight loss”. For the same molecule, the liver weight ([3]; DIO rats, 10 mg/kg once daily p.o., conclusion of the study) was “No increase in liver weight”.

In the case of `Cc1ccc(C)c(OCCCC(C)(C)C(=O)O)c1` [gemfibrozil], the “terminal (total) cholesterol levels” value ([1]; day 24, 50 mg/kg once daily) is reported as “significantly increased”, the “terminal HDL levels” value ([1]; day 24, 50 mg/kg once daily) is reported as “significantly increased” and the “terminal fasting levels of triglycerides” value ([1]; day 24, 50 mg/kg once daily) is reported as “significant reduction”. The “terminal fasting serum glucose” value ([1]; day 24, 50 mg/kg once daily) was “did not result in a significant decrease”, the “terminal levels of free fatty acids” value ([1]; day 24, 50 mg/kg once daily) was “significant increase” and the “VLDL (UV size exclusion chromatography, relative quantitation)” value [4] was “similarly significant effect”. For the same molecule, the “Glucose concentration excursion (baseline to maximum)” value ([2]; 50 mg/kg) was 110.0 mg/dL and 111.0 mg/dL, the Glucose concentration maximum ([2]; 50 mg/kg) was 264.9 mg/dL and the “Time to maximum (glucose concentration)” value ([2]; DIO rats, 50 mg/kg) was 30 min. The food consumption ([3]; DIO rats, 50 mg/kg once daily p.o., dosing period) was “No significant effect”, the body weight ([3]; DIO rats, 50 mg/kg once daily p.o., throughout the dosing period) was “no significant effect” and the liver weight ([3]; rat, in vivo, po, 50 mg/kg) was “Increased liver weight”.
